Source: patent publication US20020183256A1, “Cytostatic-integrin conjugates having specifically cleavable linking units” (priority 2000, published 2002)
Converted amounts (≈) assume the structure as drawn. Read-outs that look alike come from different tables or passages of the source. *1 amine or outer side, *2 acyl side, *3 side chain or, on linkers, in order; H or OH if unused. Where a SMILES comes first, the peptide text is derived from it. [ ]: non-standard residue; d: D form. The star is where a group is joined. Camptothecin(20R,20-O) = CC[C@]1(O*)C(=O)OCc2c1cc1n(c2=O)Cc2cc3ccccc3nc2-1; X2 = CCCNC(=O)Nc1cccc(S(=O)(=O)Nc2cccc(C(CC(=O)O)NC(=O)Nc3ccc(N*)cc3)c2)c1; X1 = CCCNC(=O)Nc1cccc(S(=O)(=O)Nc2cccc(C(CC(=O)O)N*)c2)c1; NH(1,4-C6H4)NHCS = S=C(Nc1ccc(N[*:1])cc1)[*:2]; CO = O=C([*:1])[*:2]; GABA = NCCCC(=O)O

How the values were obtained:
αvβ3 receptor = target: T1, αvβ3 receptor (Homo sapiens, UniProt P05106+P06756); test: αvβ3 binding test (echistatin displacement, WGA SPA beads); details: αvβ3 from human A375 cells
T1 construct: αvβ3 from human A375 cells was purified; endogenous in cells; host or cells: human A375 cells (receptor purified from the cells, analogous to Wong et al. 1996)
Procedure: αvβ3 from human A375 cells was purified analogously to a procedure which was described by Wong et al. (Molecular Pharmacology, 50, 529-537 (1996)). In each case, 10 μl of αvβ3 (5 ng) in TBS pH 7.6, 2 mM CaCl2, 1 mM MgCl2, 1% n-octylglucopyranoside (Sigma); 10 μl of test substance in TBS pH 7.6, 0.1% DMSO and 45 μl of TBS pH 7.6, 2 mM CaCl2, 1 mM MgCl2, 1 mM MnCl2 were incubated at room temperature for 1 h. In each case, 25 μl of WGA SPA beads (Amersham, 4 mg/ml) and 10 μl of echistatin (0.1 μCi, Amersham, chloramine-T labelled) were then added. After 16 hours at room temperature, the samples were measured in a scintillation measuring apparatus (Wallac 1450).

SW 480 = test: Growth inhibition test (MTT), cytotoxic action on tumour cell lines; type: cell-based, human
Procedure: (§1) The human large intestine cell lines SW 480 and HT29 (ATCC No. CCL 228 and HTB38 and the mouse melanoma cell line B16F10 (CRL 6475) were grown to confluence in Roux dishes in RPMI 1640 medium with addition of 10% FCS. They were then trypsinized and taken up in RPMI plus 10% FCS to a cell count of 50,000 cells or, for B16F10, 20,000 cells per ml. 100 μl of cell suspension/well were added to a 96 microwell plate and incubated at 37° C. for 1 day in a CO2 incubator. A further 100 μl of RPMI medium and 1 μl of DMSO were then added with the test substances. The growth was checked after day 6. For this, 25 μl of MTT solution (3-(4,5-dimethylthiazol-2-yl)-2,5-diphenyltetrazolium bromide) was added to each well at a starting concentration of 5 mg/ml of H2O. The plate was incubated at 37° C. for 5 hours in a CO2 incubator. The medium was then aspirated and 100 μl of i-propanol/well were added. After shaking with 100 μl of H2O for 30 min, the extinction was measured at 595 nm using a Multiplate Reader (BIO-RAD) 3550-UV).
(§2) The cytostatic action is indicated in Table 2 as an IC50 value, in each case for the individual cell lines.

HT29 = test: as above; type: cell-based, human
Procedure: as §1, §2

MMP-2 = target: T2, MMP-2 (Homo sapiens, UniProt P08253); test: Cleavage of conjugates by MMP-2 in buffer (HPLC); type: biochemical; details: after 6 h incubation with MMP-2; buffer pH 7.5
T2 construct: purchased Calbiochem
T2 sequence (P08253 110-660): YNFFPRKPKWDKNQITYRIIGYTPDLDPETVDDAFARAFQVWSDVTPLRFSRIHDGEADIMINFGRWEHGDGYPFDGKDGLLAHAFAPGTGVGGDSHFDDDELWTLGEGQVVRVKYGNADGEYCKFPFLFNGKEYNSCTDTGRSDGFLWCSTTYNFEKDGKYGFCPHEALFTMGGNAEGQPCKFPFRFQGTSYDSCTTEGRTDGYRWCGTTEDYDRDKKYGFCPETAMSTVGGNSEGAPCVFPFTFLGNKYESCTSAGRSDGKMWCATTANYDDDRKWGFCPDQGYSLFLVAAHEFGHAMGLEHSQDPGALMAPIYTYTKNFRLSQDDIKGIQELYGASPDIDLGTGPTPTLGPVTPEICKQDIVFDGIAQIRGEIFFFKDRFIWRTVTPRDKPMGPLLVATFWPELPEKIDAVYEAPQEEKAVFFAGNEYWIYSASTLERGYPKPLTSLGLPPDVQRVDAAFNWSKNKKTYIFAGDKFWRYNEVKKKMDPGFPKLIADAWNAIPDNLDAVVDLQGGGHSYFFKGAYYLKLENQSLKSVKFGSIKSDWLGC
Procedure: 2.5 μl MMP-2 (Calbiochem) with a specific activity of 60 μU/μl are incubated with 10 nM of the conjugates exemplified in the example series 1-25 in 1 ml of a medium consisting of 50 mM Tris-HCl pH 7.5, 0.2 M NaCl, 10 mM CaCL2*2H2O and 0.05% Brij 35. The enzyme mediated cleavage of the conjugates is detected by HPLC analysis using an RP18 (5 μM) column with 70% HClO4/water (0.4% v/v) as eluent A and acentonitrile as eluent B (UV detection at […]). The efficiency of the cleavage is assessed by comparing the peak areas of the intact conjugate (starting material) and the cleavage product (tripeptide conjugate of camptothecin) after 6 h and 24 h incubation (cf. Table 5).

[1] = tested on: melanoma xenograft model (MEXF 989); test: In-vivo inhibition of tumour growth using a nude mouse model; design: species or system athymic nude mice (NMRI nu/nu strain); details: for optimal T/C in % / lethality: intravenously or intraperitoneally day 1-3 and day 15-17; for optimal T/C in %: MEXF 989; for lethality: MEXF 989 nude mice; for inhibition of the tumor growth (in words): subcutaneously growing melanoma xenograft MEXF 989
From the text: (§3) In all in-vivo experiments for investigating the inhibition of tumour growth, athymic nude mice (NMRI nu/nu strain) were used. The tumour was developed by serial passage in nude mice. The human origin of the tumour was confirmed by isoenzymatic and immunohistochemical methods.
(§4) The tumour was implanted subcutaneously in both flanks of nu/nu nude mice 6 to 8 weeks old. The treatment was started, depending on the doubling time, as soon as the tumours had reached a diameter of 5-7 mm. The mice were assigned to the treatment group or the control group (5 mice per group having 8-10 assessable tumours) by randomization. The individual tumours of the control group all grew progressively.
(§5) The size of the tumours was measured in two dimensions by means of a slide gauge. The tumour volume, which correlated well with the cell count, was then used for all assessments. The volume was calculated according to the formula “length×breadth×breadth/2” ([a×b^2]/2, a and b represent two diameters arranged at right angles).
(§6) The values of the relative tumour volume (RTV) were calculated for each individual tumour by dividing the tumour size on day X with the tumour size on day 0 (at the time of randomization). The average values of the RTV were then used for the further assessment.
(§7) The inhibition of the increase of the tumour volume (tumour volume of the test group/control group, T/C, in per cent) was the final measured value.
(§8) The compounds can be administered with a daily or an intermittent therapy schedule through a couple of days either by intraperitoneal, intravenious, oral or subcutaneous route.
(§9) The compounds are dissolved in PEG400/water 2:1 and administered intravenously or intraperitoneally from day 1-3 and day 15-17.

[2] = as above; design: species or system athymic nude mice (NMRI nu/nu strain); details: NMRI nu/nu, mouse, in vivo; intravenously or intraperitoneally day 1-3 and day 15-17; nude mice; read-out: MTD (dose marked MTD)
From the text: as §3, §4, §5, §6, §7, §8, §9

B16F10 = test: Growth inhibition test (MTT), cytotoxic action on tumour cell lines; type: cell-based, mouse
Procedure: as §1, §2

hemopoietic stem cells = test: CSF-induced proliferation of hemopoietic stem cells (colony formation); type: cell-based, mice; details: Mus musculus, Bone marrow cell, 168 h; murine bone marrow cells, GM-CSF, 7 days; read-out: IC50 values of the inhibition of colony formation of hemopoietic stem cells
Procedure: Bone marrow cells are flushed out of the femur of mice. 10^5 cells are incubated in McCoy 5A medium (0.3% agar) together with recombinant murine GM-CSF (Genzyme; parent cell colony formation) and the substances (10^−4 to 100 μg/ml) at 37° C. and 7% CO2. 7 days later, the colonies […] and clusters (17-50 cells) are counted.

[3] = read-out: IC50 values of the binding to the αvβ3 receptor
[4] = IC50 values of the binding to the αvβ3 receptor
[5] = SW480, MTT after day 6, read-out: IC50 values of the cytotoxic action on tumour cell lines, SW480
[6] = HT29, MTT after day 6, read-out: IC50 values of the cytotoxic action on tumour cell lines, HT29
[7] = B16F10, MTT after day 6, read-out: IC50 values of the cytotoxic action on tumour cell lines, B16F10

T1 sequence (P06756 31-889 limits assumed): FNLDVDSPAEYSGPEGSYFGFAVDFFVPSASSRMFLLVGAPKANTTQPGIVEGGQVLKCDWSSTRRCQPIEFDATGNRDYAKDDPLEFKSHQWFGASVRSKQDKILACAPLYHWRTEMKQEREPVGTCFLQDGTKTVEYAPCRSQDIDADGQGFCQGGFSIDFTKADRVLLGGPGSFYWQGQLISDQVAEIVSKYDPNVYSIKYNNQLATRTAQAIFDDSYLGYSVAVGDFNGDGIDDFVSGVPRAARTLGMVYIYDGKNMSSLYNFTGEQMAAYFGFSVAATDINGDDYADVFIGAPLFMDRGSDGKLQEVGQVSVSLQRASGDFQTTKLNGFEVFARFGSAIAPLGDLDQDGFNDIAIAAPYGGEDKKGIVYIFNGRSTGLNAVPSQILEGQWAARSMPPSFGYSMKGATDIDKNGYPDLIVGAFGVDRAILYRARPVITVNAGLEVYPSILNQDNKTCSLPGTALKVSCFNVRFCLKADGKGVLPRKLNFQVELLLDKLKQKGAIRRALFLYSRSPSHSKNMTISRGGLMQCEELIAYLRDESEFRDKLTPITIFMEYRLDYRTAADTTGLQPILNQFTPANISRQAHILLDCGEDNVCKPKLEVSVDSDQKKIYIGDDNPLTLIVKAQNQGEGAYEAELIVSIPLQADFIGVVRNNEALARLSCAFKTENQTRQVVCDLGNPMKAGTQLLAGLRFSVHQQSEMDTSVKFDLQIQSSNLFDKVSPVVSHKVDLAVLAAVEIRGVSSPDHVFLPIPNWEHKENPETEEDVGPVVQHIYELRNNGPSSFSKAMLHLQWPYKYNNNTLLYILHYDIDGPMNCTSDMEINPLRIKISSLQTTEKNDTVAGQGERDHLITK
T1 sequence (P06756 891-1048 partner limits assumed): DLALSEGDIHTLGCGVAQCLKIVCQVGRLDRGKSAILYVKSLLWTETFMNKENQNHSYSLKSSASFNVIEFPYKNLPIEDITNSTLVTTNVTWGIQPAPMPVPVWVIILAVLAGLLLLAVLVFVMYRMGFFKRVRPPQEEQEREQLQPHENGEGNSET
T1 sequence (P05106 27-788): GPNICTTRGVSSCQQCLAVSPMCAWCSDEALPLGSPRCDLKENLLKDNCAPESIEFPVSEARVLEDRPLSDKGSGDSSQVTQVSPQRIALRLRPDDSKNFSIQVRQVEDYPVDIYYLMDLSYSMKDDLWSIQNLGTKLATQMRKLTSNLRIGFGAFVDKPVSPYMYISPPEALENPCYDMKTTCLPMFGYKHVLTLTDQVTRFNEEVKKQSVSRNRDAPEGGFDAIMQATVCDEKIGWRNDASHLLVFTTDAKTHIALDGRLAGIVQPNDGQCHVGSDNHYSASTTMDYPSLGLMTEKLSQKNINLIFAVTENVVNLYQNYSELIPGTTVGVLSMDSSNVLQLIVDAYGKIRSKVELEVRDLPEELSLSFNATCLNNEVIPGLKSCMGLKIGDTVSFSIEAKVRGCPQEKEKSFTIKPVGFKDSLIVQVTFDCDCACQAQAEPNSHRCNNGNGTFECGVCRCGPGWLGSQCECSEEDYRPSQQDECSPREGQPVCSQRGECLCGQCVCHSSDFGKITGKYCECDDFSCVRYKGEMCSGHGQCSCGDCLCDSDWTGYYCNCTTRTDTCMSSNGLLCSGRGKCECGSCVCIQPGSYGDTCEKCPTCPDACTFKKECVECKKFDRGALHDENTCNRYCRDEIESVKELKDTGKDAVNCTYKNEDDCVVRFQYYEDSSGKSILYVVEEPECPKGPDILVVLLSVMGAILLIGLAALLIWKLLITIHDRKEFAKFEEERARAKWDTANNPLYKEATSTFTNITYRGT

| Compound | IC50 (αvβ3 receptor; [3]) [nM] | IC50 (SW 480; human, 6 days) [nM] | IC50 (HT29; human, 6 days) [nM] | MMP-2 mediated cleavage Peak area product/educt x100 (MMP-2) | optimal T/C in % ([1]; 6 mg/kg/day) [%] | lethality ([1]; 6 mg/kg/day) | optimal T/C in % ([1]; 12 mg/kg/day) [%] | lethality ([1]; 12 mg/kg/day) | inhibition of the tumor growth (in words) [1] | MTD [2] [mg/kg/day] | IC50 (B16F10; mouse, 6 days) [nM] | IC50 (hemopoietic stem cells) [ng/mL] | IC50 (αvβ3 receptor; [4]) [nM] | IC50 (SW 480; [5]) [nM] | IC50 (HT29; [6]) [nM] | IC50 (B16F10; [7]) [nM] |
| --- | --- | --- | --- | --- | --- | --- | --- | --- | --- | --- | --- | --- | --- | --- | --- | --- |
| CCCNC(=O)Nc1cccc(S(=O)(=O)Nc2cccc(C(CC(=O)O)NC(=O)Nc3ccc(NC(=S)N4CCC[C@@H]4C(=O)N[C@@H](CC(C)C)C(=O)NCC(=O)N[C@H](CC(C)C)C(=O)N[C@H](Cc4c[nH]cn4)C(=O)N[C@@H](C(=O)O[C@@]4(CC)C(=O)OCc5c4cc4n(c5=O)Cc5cc6ccccc6nc5-4)C(C)C)cc3)c2)c1 (single isomer, unassigned) [Example 2] | 25 | 100 | 180 | 18 | 17.7 | 0/5 | 7.4 | 1/5 (MTD) | effected inhibitions of the tumor growth | 12 | 500 |  |  |  |  |  |
| CCCNC(=O)Nc1cccc(S(=O)(=O)Nc2cccc(C(CC(=O)O)NC(=O)Nc3ccc(NC(=S)N4CCC[C@@H]4C(=O)N[C@@H](CC(C)C)C(=O)NCC(=O)N[C@H](CC(C)C)C(=O)N[C@H](CC(N)=O)C(=O)N[C@@H](C(=O)O[C@@]4(CC)C(=O)OCc5c4cc4n(c5=O)Cc5cc6ccccc6nc5-4)C(C)C)cc3)c2)c1 (single isomer, unassigned) [Example 10] | 20 | 70 | 100 | 16 | 11.4 | 0/5 (MTD) |  |  | effected inhibitions of the tumor growth | 6 | 600 |  |  |  |  |  |
| CCCNC(=O)Nc1cccc(S(=O)(=O)Nc2cccc(C(CC(=O)O)NC(=O)Nc3ccc(NC(=S)N4CCC[C@@H]4C(=O)N[C@@H](CC(C)C)C(=O)NCC(=O)N[C@H](CSC)C(=O)N[C@H](Cc4c[nH]cn4)C(=O)N[C@@H](C(=O)O[C@@]4(CC)C(=O)OCc5c4cc4n(c5=O)Cc5cc6ccccc6nc5-4)C(C)C)cc3)c2)c1 (single isomer, unassigned) [Example 25] |  | 60 | 80 | 9 | 19.6 | 1/5 (MTD) |  |  | effected inhibitions of the tumor growth | 6 | 250 |  |  |  |  |  |
| CC[C@@]1(O)C(=O)OCc2c1cc1n(c2=O)Cc2cc3ccccc3nc2-1 [Camptothecin, 20(S)-Camptothecin, reference compound] |  |  |  |  |  |  |  |  |  |  |  | 0.25 (≈ 0.718 nM) |  |  |  |  |
| CCCNC(=O)Nc1cccc(S(=O)(=O)Nc2cccc(C(CC(=O)O)NC(=O)Nc3ccc(NC(=S)N4CCC[C@@H]4C(=O)N[C@@H](CC(C)C)C(=O)NCC(=O)N[C@H](CC(C)C)C(=O)N[C@H](CSC)C(=O)N[C@@H](C(=O)O[C@@]4(CC)C(=O)OCc5c4cc4n(c5=O)Cc5cc6ccccc6nc5-4)C(C)C)cc3)c2)c1 (stereo partly drawn) [Example 14] ({X1-CO}-[NH(1,4-C6H4)NHCS][dP]LG[dL][dC](Me)[dV]-{Camptothecin(20R,20-O)}) |  |  |  | 5 |  |  |  |  |  |  |  |  | 70 | 50 | 60 | 400 |
| CCCNC(=O)Nc1cccc(S(=O)(=O)Nc2cccc(C(CC(=O)O)NC(=O)Nc3ccc(NC(=O)NCCCC(=O)N4CCC[C@@H]4C(=O)N[C@@H](CC(C)C)C(=O)NCC(=O)N[C@H](CC(C)C)C(=O)N[C@H](Cc4c[nH]cn4)C(=O)N[C@@H](C(=O)O[C@@]4(CC)C(=O)OCc5c4cc4n(c5=O)Cc5cc6ccccc6nc5-4)C(C)C)cc3)c2)c1 (stereo partly drawn) [Example 17] ({X2-CO-GABA}-[dP]LG[dL][dH][dV]-{Camptothecin(20R,20-O)}) |  |  |  | 16 |  |  |  |  |  |  |  |  | 50 | 70 | 100 | 600 |
| CCCNC(=O)Nc1cccc(S(=O)(=O)Nc2cccc(C(CC(=O)O)NC(=O)Nc3ccc(NC(=O)NCCCC(=O)N4CCC[C@@H]4C(=O)N[C@@H](CC(C)C)C(=O)NCC(=O)N[C@H](CC(C)C)C(=O)N[C@H](CC(N)=O)C(=O)N[C@@H](C(=O)O[C@@]4(CC)C(=O)OCc5c4cc4n(c5=O)Cc5cc6ccccc6nc5-4)C(C)C)cc3)c2)c1 (stereo partly drawn) [Example 18] ({X2-CO-GABA}-[dP]LG[dL][dN][dV]-{Camptothecin(20R,20-O)}) |  |  |  | 51 |  |  |  |  |  |  |  |  | 20 | 35 | 25 | 70 |
